Results from US9624182B2, “Compounds as lysophosphatidic acid receptor antagonists” (Amira Pharmaceuticals, Inc., priority 2009, dated 2017).

Experiments:
[1] = molecular target: T1, human LPA1 (Homo sapiens, UniProt Q92633); test: LPA1 calcium flux assay; format: cell-based; conditions: CHO cells expressing human LPA1, stimulated with 10 nM LPA; read-out: HLPA1 Ca Flux IC50
T1 construct: the full-length cDNA for human LPA1 was obtained by PCR of the reverse transcription reaction; expressed in transfected cells
T1 sequence (Q92633 whole entry): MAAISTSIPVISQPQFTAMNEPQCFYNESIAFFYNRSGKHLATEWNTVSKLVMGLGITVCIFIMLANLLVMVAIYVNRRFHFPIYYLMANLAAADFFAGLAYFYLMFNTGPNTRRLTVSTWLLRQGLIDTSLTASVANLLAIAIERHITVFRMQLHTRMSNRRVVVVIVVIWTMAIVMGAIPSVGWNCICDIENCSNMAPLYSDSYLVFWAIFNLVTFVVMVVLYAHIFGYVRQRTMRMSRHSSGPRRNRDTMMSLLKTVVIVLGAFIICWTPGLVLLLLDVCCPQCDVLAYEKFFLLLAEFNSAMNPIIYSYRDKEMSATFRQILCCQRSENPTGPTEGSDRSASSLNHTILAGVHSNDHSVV
How it was run: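 CHO cells stably expressing cloned human LPA1, serum-starved overnight, loaded with Calcium 4 dye 1 h at 37 °C in HBSS/20 mM Hepes with 0.3% fatty-acid-free HSA. Compounds preincubated 30 min at room temperature, then cells stimulated with 10 nM LPA; intracellular Ca2+ read by fluorescence. IC50 from titration curves.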

[2] = system: A2058 human melanoma cells; test: LPA1 chemotaxis assay; format: cell-based; conditions: LPA 100 nM, read-out: IC50, inhibition of LPA-driven chemotaxis
Experimental: Chemotaxis of the A2058 human melanoma cells was measured using the Neuroprobe ChemoTx® System plates (8 μm pore size, 5.7 mm diameter sites). The filter sites were coated with 0.001% fibronectin (Sigma) in 20 mM Hepes, pH 7.4 and allowed to dry. A2058 cells were serum-starved for 24 hours, then harvested with Cell Stripper and resuspended in DMEM containing 0.1% fatty-acid-free bovine serum albumin (BSA) to a concentration of 1×10^6/ml. Cells were mixed with an equal volume of test compound (2×) in DMEM containing 0.1% fatty-acid-free BSA and incubated at 37° C. for 15 minutes. LPA (100 nM in DMEM containing 0.1% fatty-acid-free BSA) or vehicle was added to each well of the lower chamber and 50 μl of the cell suspension/test compound mix was applied to the upper portion of the ChemoTx plate. Plates were incubated at 37° C. for three hours and then the cells removed from the upper portion by rinsing with PBS and scraping. The filter was dried then stained with HEMA 3 Staining System (Fisher Scientific). The absorbance of the filter was read at 590 nm and IC50s were determined using Symyx Assay Explorer.

[3] = system: nerve-injured mice; conditions: pretreatment; cited from earlier work
[4] = system: human foetal lung fibroblasts; conditions: BAL obtained from IPF patients; cited from earlier work
[5] = system: UUO mice; conditions: UUO mice treated with antagonist; cited from earlier work
[6] = system: highly peritoneal metastatic pancreatic cancer cell line; conditions: cited from earlier work
[7] = system: mouse epithelial renal cell line, MCT; conditions: MCT cells, co-treatment with LPA; cited from earlier work
[8] = system: pancreatic cancer cell lines; conditions: LPA and peritoneal fluid (ascites) from pancreatic cancer patients; cited from earlier work

SMILES	IC50 [1] [nM]	other results
Cc1noc(-c2ccc(-c3ccc(C4(C(=O)O)CC4)cc3)cc2)c1C(O)CCCc1ccccc1 (single isomer, unassigned) [Compound 1-155, 1-{4′-[4-(1-Hydroxy-4-phenyl-butyl)-3-methyl-isoxazol-5-yl]-biphenyl-4-yl}-cyclopropanecarboxylic acid]	< 300	IC50 [2]: < 100 nM
Cc1noc(-c2ccc(-c3ccc(C4(C(=O)O)CC4)cc3)cc2)c1C(O)C(F)(F)CCc1ccccc1 (single isomer, unassigned) [Compound 1-255, 1-{4′-[4-(2,2-Difluoro-1-hydroxy-4-phenyl-butyl)-3-methyl-isoxazol-5-yl]-biphenyl-4-yl}-cyclopropanecarboxylic acid]	< 300	IC50 [2]: < 100 nM
Cc1noc(-c2ccc(-c3ccc(C4(C(=O)O)CC4)cc3)cc2)c1C(O)CCCc1ccccc1 (centres unmarked) [Compound 1-116, 1-{4′-[4-(1-Hydroxy-4-phenyl-butyl)-3-methyl-isoxazol-5-yl]-biphenyl-4-yl}-cyclopropanecarboxylic acid]		IC50 [2]: < 100 nM
Cc1noc(-c2ccc(-c3ccc(C4(C(=O)O)CC4)cc3)cc2)c1C(O)C(F)(F)CCc1ccccc1 (centres unmarked) [Compound 1-178, 1-{4′-[4-(2,2-Difluoro-1-hydroxy-4-phenyl-butyl)-3-methyl-isoxazol-5-yl]-biphenyl-4-yl}-cyclopropanecarboxylic acid]		IC50 [2]: < 100 nM
COc1cccc(Nc2c(C)noc2-c2ccc(-c3ccc(C4(C(=O)O)CC4)cc3)cc2)n1 [Compound 1-304, 1-{4′-[4-(6-Methoxy-pyridin-2-ylamino)-3-methyl-isoxazol-5-yl]-biphenyl-4-yl}-cyclopropanecarboxylic acid]	< 300	
Cc1noc(-c2ccc(-c3cccc(C(=O)O)c3)cc2)c1CNC(=O)OCc1ccccc1 [Compound 1-305, 4′-[4-(Benzyloxycarbonylamino-methyl)-3-methyl-isoxazol-5-yl]-biphenyl-3-carboxylic acid]	1000 to 50000	
Cc1onc(-c2ccc(-c3ccc(C4(CC(=O)O)CC4)cc3)cc2)c1CSCCc1ccccc1 [Compound 1-306, {1-[4′-(5-Methyl-4-phenethylsulfanylmethyl-isoxazol-3-yl)-biphenyl-4-yl]-cyclopropyl}-acetic acid]	< 300	
Cc1noc(-c2ccc(-c3ccc(C#CC(=O)O)cc3)cc2)c1N[C@@H](C)CCc1cccc(C(F)(F)F)c1 [Compound 1-307, (4′-{3-Methyl-4-[(S)-1-methyl-3-(3-trifluoromethyl-phenyl)-propylamino]-isoxazol-5-yl}-biphenyl-4-yl)-propynoic acid]	300 to 1000	
Cc1noc(-c2ccc(-c3ccc(C4(C(=O)O)CC4)cc3)cc2)c1NC(=O)Nc1cccc(Br)c1 [Compound 1-308, 1-(4′-{4-[3-(3-Bromo-phenyl)-ureido]-3-methyl-isoxazol-5-yl}-biphenyl-4-yl)-cyclopropanecarboxylic acid]	< 300	
Cc1noc(-c2ccc(-c3ccc(C4(C(=O)O)CC4)cc3)cc2)c1Nc1cccc(OC(C)C)[n+]1[O-] [Compound 1-309, 1-{4′-[4-(6-Isopropoxy-1-oxy-pyridin-2-ylamino)-3-methyl-isoxazol-5-yl]-biphenyl-4-yl}-cyclopropanecarboxylic acid]	1000 to 50000	
Cc1noc(-c2ccc(-c3ccc(C4(C(=O)O)CC4)cc3)cc2)c1Nc1cncc(OC(C)C)c1 [Compound 1-310, 1-{4′-[4-(5-Isopropoxy-pyridin-3-ylamino)-3-methyl-isoxazol-5-yl]-biphenyl-4-yl}-cyclopropanecarboxylic acid]	< 300	
CC(=O)c1cccc(Nc2c(C)noc2-c2ccc(-c3ccc(C4(C(=O)O)CC4)cc3)cc2)n1 [Compound 1-311, 1-{4′-[4-(6-Acetyl-pyridin-2-ylamino)-3-methyl-isoxazol-5-yl]-biphenyl-4-yl}-cyclopropanecarboxylic acid]	< 300	
Cc1noc(-c2ccc(-c3ccc(C4(C(=O)O)CC4)cc3)cc2)c1Nc1cccc(C(N)=O)n1 [Compound 1-312, 1-{4′-[4-(6-Carbamoyl-pyridin-2-ylamino)-3-methyl-isoxazol-5-yl]-biphenyl-4-yl}-cyclopropanecarboxylic acid]	< 300	
Cc1noc(-c2ccc(-c3ccc(C4(C(=O)O)CC4)cc3)cc2)c1Nc1cccc(Br)n1 [Compound 1-313, 1-{4′-[4-(6-Bromo-pyridin-2-ylamino)-3-methyl-isoxazol-5-yl]-biphenyl-4-yl}-cyclopropanecarboxylic acid]	< 300	
Cc1noc(-c2ccc(-c3ccc(C4(C(=O)NS(C)(=O)=O)CC4)cc3)cc2)c1[C@@H](COCc1ccccc1)OC(=O)NS(C)(=O)=O [Compound 2-4, N-Sulfonylmethyl carbamic acid (S)-2-benzyloxy-1-{5-[4′-(1-methanesulfonylaminocarbonyl-cyclopropyl)-biphenyl-4-yl]-3-methyl-isoxazol-4-yl}-ethyl ester]	< 300	
Cc1ccc(S(=O)(=O)NC(=O)Nc2c(C)noc2-c2ccc(-c3ccc(C4(C(=O)NS(=O)(=O)c5ccc(C)cc5)CC4)cc3)cc2)cc1 [Compound 2-5, 4-Methyl-N-(1-{4′-[3-methyl-4-(3-p-tolunesulfonyl-ureido)-isoxazol-5-yl]-biphenyl-4-yl}-cyclopropanecarbonyl)-benzenesulfonamide]	> 50000	
Cc1noc(-c2ccc(-c3ccc(C4(C(=O)NS(=O)(=O)C5CC5)CC4)cc3)cc2)c1NC(=O)NS(=O)(=O)C1CC1 [Compound 2-6, Cyclopropanesulfonic acid (1-{4′-[4-(3-cyclopropylsulfonyl-ureido)-3-methyl-isoxazol-5-yl]-biphenyl-4-yl}-cyclopropanecarbonyl)-amide]	1000 to 50000	
Cc1cccc(SCC(O)c2c(C)noc2-c2ccc(-c3ccc(C4(C(=O)NS(C)(=O)=O)CC4)cc3)cc2)c1 (centres unmarked) [Compound 2-13, N-(1-{4′-[4-(1-Hydroxy-2-m-tolylsulfanyl-ethyl)-3-methyl-isoxazol-5-yl]-biphenyl-4-yl}-cyclopropanecarbonyl)-methanesulfonamide]	< 300	
COc1cccc(SCC(O)c2c(C)noc2-c2ccc(-c3ccc(C4(C(=O)NS(C)(=O)=O)CC4)cc3)cc2)c1 (centres unmarked) [Compound 2-14, N-[1-(4′-{4-[1-Hydroxy-2-(3-methoxy-phenylsulfanyl)-ethyl]-3-methyl-isoxazol-5-yl}-biphenyl-4-yl)-cyclopropanecarbonyl]-methanesulfonamide]	300 to 1000	
Cc1noc(-c2ccc(-c3ccc(C4(CC(=O)NS(C)(=O)=O)CC4)cc3)cc2)c1C(CCCc1ccccc1)OC(=O)NS(C)(=O)=O (centres unmarked) [Compound 2-15, N-Sulfonylmethyl carbamic acid 1-(5-{4′-[1-(2-methanesulfonylamino-2-oxo-ethyl)-cyclopropyl]-biphenyl-4-yl}-3-methyl-isoxazol-4-yl)-4-phenyl-butyl ester]	300 to 1000	
Cc1noc(-c2ccc(-c3ccc(C4(CC(=O)NS(C)(=O)=O)CC4)cc3)cc2)c1C(O)CCCc1ccccc1 (centres unmarked) [Compound 2-16, N-[2-(1-{4′-[4-(1-Hydroxy-4-phenyl-butyl)-3-methyl-isoxazol-5-yl]-biphenyl-4-yl}-cyclopropyl)-acetyl]-methanesulfonamide]	< 300	
C[C@@H](N)[C@H]1CC[C@H](C(=O)Nc2ccncc2)CC1 [Compound Y-27632]		allodynia and hyperalgesia [3]: completely abolished
Cc1noc(-c2ccc(CSCCC(=O)O)cc2)c1NC(=O)OC(C)c1ccccc1Cl (centres unmarked) [Ki16425]		chemotaxis of human foetal lung fibroblasts induced by BAL from IPF patients [4]: blocked; development of renal fibrosis in UUO mice [5]: closely resembled the LPA1 (−/−) mice; LPA-induced and ascites-induced invasion activity [6]: blocked; LPA-induced increase in CTGF expression [7]: almost completely suppressed; in vitro migration in response to LPA and ascites [8]: effectively blocked
